From patent US11691970B2, “Pyrazolopyridinone compounds” (Janssen Pharmaceutica NV, priority 2017, dated 2023)
Like-named read-outs stand apart in the source and are kept apart here.

Assays:
[1] = molecular target: T1, NIH/3T3 cells overexpressing FGFR3 WT-TACC3 fusion protein (Homo sapiens, UniProt P22607); test: NIH/3T3 FGFR3 WT-TACC3 cell proliferation assay (CellTiter Glo); assay type: cell-based; conditions: 72-hr incubation, top concentration 10 μM, read-out: NIH/3T3 FGFR3 WT-TACC3 CTG (IC50)
T1 construct: NIH/3T3 FGFR3 WT-TACC3 CTG (IC50); other: 72-hr incubation, CellTiter Glo, top concentration 10 μM; fused on or other part: Q9Y6A5 (Transforming acidic coiled-coil-containing protein 3)
T1 sequence (P22607 whole entry, change not shown, the tested form may be a part): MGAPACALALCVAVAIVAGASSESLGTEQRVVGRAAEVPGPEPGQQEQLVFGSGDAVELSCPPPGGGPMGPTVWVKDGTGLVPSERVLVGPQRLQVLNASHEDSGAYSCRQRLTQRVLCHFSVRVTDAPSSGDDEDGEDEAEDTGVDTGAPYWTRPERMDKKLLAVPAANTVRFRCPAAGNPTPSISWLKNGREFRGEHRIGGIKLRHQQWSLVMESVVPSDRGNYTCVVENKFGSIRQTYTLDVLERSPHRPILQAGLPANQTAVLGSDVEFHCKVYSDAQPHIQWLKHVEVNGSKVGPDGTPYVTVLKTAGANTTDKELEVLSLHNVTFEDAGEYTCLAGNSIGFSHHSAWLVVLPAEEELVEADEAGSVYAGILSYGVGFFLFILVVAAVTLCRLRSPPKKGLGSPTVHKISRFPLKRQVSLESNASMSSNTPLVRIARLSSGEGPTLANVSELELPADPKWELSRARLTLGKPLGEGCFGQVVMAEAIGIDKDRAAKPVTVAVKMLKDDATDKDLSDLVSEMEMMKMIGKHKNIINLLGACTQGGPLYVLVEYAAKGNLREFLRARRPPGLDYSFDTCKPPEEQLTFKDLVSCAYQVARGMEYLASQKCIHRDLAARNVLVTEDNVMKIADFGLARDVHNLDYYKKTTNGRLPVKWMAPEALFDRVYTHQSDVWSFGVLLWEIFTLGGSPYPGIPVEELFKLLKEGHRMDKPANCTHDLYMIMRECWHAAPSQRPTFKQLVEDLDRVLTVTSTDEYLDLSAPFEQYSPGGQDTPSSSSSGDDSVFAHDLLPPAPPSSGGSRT
Protocol: NIH/3T3 FGFR3 WT-TACC3 Cell Proliferation Assay
In day 1, 90 μL of cell suspension (NIH/3T3 cells overexpressing FGFR3 WT-TACC3 fusion protein) (total 30,000 cells per well in growth medium (DMEM containing 1% Glutamax, 10% FBS and 1% Pen/Strep)) was seeded in a 96-well plate and then incubated overnight at 37° C. and 5% CO2. […] After 72-hr incubation at 37° C. and 5% CO2, in day 5 a volume of 50 μL CellTiter Glo (CTG) reagent was added into cell-containing 96-well plate and the plate was incubated at room temperature for 10 minutes before RLUs (relative light unit) were measured on a microplate reader with luminescence detection module.

[2] = test system: NIH/3T3 cells transfected with control vector; test: NIH/3T3 mock cell proliferation assay (counter assay, CellTiter Glo); assay type: cell-based; conditions: 72-hr incubation, top concentration 30 μM, counter assay for general toxicity, read-out: NIH/3T3 MOCK CTG (IC50)
Protocol: NIH/3T3 Mock Cell Proliferation Assay
In day 1, 90 μL of cell suspension (NIH/3T3 cells transfected with the same control vector as in the above two proliferation assays) (total 30,000 cells per well in growth medium (DMEM containing 1% Glutamax, 10% FBS and 1% Pen/Strep)) was seeded in a 96-well plate and then incubated overnight at 37° C. and 5% CO2. In day 2, 10 μL of growth medium containing 10-fold stock solution of testing compound was added into cell cultures (9 dose points with 3× serial dilution, starting with 30 μM, 0.3% DMSO final). After 72-hr incubation at 37° C. and 5% CO2, in day 5 a volume of 50 μL CellTiter Glo (CTG) reagent was added into cell-containing 96-well plate and the plate was incubated at room temperature for 10 minutes before RLUs (relative light unit) were measured on a microplate reader with luminescence detection module.

[3] = molecular target: T2, human FGFR3 wild type enzyme (cytoplasmic domain) (Homo sapiens, UniProt P22607); test: FGFR3 wild type mobility shift assay (enzymatic assay); assay type: biochemical; conditions: 75 μM ATP, 50 minutes at 30° C, Caliper EZ reader II
T2 construct: human FGFR3 wild type enzyme (cytoplasmic domain, from Carna Biosciences); purchased Carna Biosciences
T2 sequence (P22607 397-806 limits assumed): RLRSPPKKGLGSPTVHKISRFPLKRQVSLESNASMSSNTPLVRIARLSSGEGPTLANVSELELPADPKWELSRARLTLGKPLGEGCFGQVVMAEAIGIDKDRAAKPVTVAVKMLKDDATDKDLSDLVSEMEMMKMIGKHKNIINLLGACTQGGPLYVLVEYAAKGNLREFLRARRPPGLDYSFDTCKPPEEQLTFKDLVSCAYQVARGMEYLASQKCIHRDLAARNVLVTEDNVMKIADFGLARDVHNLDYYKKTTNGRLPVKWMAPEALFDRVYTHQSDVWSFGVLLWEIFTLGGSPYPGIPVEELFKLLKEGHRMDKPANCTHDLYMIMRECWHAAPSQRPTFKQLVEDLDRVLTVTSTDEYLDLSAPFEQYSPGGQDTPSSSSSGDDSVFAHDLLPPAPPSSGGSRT
Text: FGFR3 Wild Type Mobility Shift Assay (Enzymatic Assay)

[4] = molecular target: T3, human FGFR3 V555L enzyme (cytoplasmic domain carrying V555L mutation) (Homo sapiens, UniProt P22607, V555L); test: FGFR3 V555L mobility shift assay (enzymatic assay); assay type: biochemical; conditions: 40 μM ATP, 50 minutes at 30° C, Caliper EZ reader II
T3 construct: human FGFR3 V555L enzyme (cytoplasmic domain carrying V555L mutation, from Carna Biosciences); purchased Carna Biosciences
T3 sequence (P22607 397-806 V555L limits assumed): as the sequence (P22607 397-806 limits assumed) above, with V159L counted along it
Text: FGFR3 V555L Mobility Shift Assay (Enzymatic Assay)

[5] = test system: NIH/3T3 cells overexpressing FGFR3 WT-TACC3 fusion protein; test: NIH/3T3 FGFR3 WT-TACC3 cellular phospho-ERK assay (in vitro PD assay); assay type: cell-based; conditions: Mus musculus, NIH3T3; 1-hr incubation, AlphaLISA SureFire Ultra p-ERK1/2 (Thr202/Tyr204); read-out: NIH/3T3 FGFR3 WT-TACC3 pERK (IC50)
Protocol: NIH/3T3 FGFR3 WT-TACC3 Cellular Phospho-ERK Assay (In Vitro PD Assay)
50 μL of cell suspension (NIH/3T3 cells overexpressing FGFR3 WT-TACC3 fusion protein) (total 10,000 cells per well in growth medium (DMEM containing 1% Glutamax, 10% FBS and 1% Pen/Strep)) was seeded in a 384-well plate. […] After 1-hr incubation at 37° C. and 5% CO2, the medium was depleted and AlphaLISA SureFire Ultra p-ERK1/2 (Thr202/Tyr204) Assay Kit (from PerkinElmer) was applied for phospho-ERK level detection according to the kit instructions.

| GI50 [1] | IC50 [3] | IC50 [4] | SMILES | IC50 ([2]; Mus musculus, NIH3T3, 72 h) | IC50 [2] | IC50 [5] |
| --- | --- | --- | --- | --- | --- | --- |
| 16.3 nM | 0.881 nM | – | CCC(Nc1c(-c2nc3ccc(N4CCOCC4)cc3[nH]2)c(=O)[nH]c2cn(C)nc12)c1ncccn1 (single isomer, unassigned) [Compound 39, (S*)-2-methyl-6-(6-morpholino-1H-benzo[d]imidazol-2-yl)-7-((1-(pyrimidin-2-yl)-propyl)amino)-2H-pyrazolo[4,3-b]pyridin-5(4H)-one] | 458 nM | – | – |
| 5.57 nM | 23.7 nM | 50.8 nM | CC(Nc1c(-c2nc3ccc(N4CCOCC4)cc3[nH]2)c(=O)[nH]c2cn(C)nc12)c1cscn1 (single isomer, unassigned) [Compound 41, (S*)-2-methyl-6-(6-morpholino-1H-benzo[d]imidazol-2-yl)-7-((1-(thiazol-4-yl)ethyl)-amino)-2H-pyrazolo[4,3-b]pyridin-5(4H)-one] | 425 nM | – | – |
| 8.84 nM | 18.9 nM | – | CC(Nc1c(-c2nc3ccc(N4CCOCC4)cc3[nH]2)c(=O)[nH]c2cn(C)nc12)c1cscn1 (single isomer, unassigned) [Compound 42, (R*)-2-methyl-6-(6-morpholino-1H-benzo[d]imidazol-2-yl)-7-((1-(thiazol-4-yl)ethyl)-amino)-2H-pyrazolo[4,3-b]pyridin-5(4H)-one] | – | 305 nM | 2.73 nM |
| 44.6 nM | 0.788 nM | – | COc1cc(N2CCOCC2)cc2[nH]c(-c3c(NC(C)c4ncccn4)c4nn(C)cc4[nH]c3=O)nc12 (single isomer, unassigned) [Compound 51, (S*)-6-(4-methoxy-6-morpholino-1H-benzo[d]imidazol-2-yl)-2-methyl-7-((1-(pyrimidin-2-yl)ethyl)amino)-2,4-dihydro-5H-pyrazolo[4,3-b]pyridin-5-one] | 1160 nM | – | – |
| 21.3 nM | 0.903 nM | – | Cc1cc2nc(-c3c(N[C@@H](C)c4ncccn4)c4nn(C)cc4[nH]c3=O)[nH]c2cc1C(=O)N1CCCC1 [Compound 2] | 998 nM | – | – |
| 19.7 nM | 1.78 nM | – | CCn1cc2[nH]c(=O)c(-c3nc4cc(C)c(N5CCOCC5)cc4[nH]3)c(N[C@@H](C)c3ncccn3)c2n1 [Compound 5, (S)-2-ethyl-6-(5-methyl-6-morpholino-1H-benzo[d]imidazol-2-yl)-7-((1-(pyrimidin-2-yl)-ethyl)amino)-2,4-dihydro-5H-pyrazolo[4,3-b]pyridin-5-one] | 1050 nM | – | – |
| 13.8 nM | 1.16 nM | – | CCn1cc2[nH]c(=O)c(-c3nc4c(F)cc(N5CCOCC5)cc4[nH]3)c(N[C@@H](C)c3ncccn3)c2n1 [Compound 6, (S)-2-ethyl-6-(4-fluoro-6-morpholino-1H-benzo[d]imidazol-2-yl)-7-((1-(pyrimidin-2-yl)-ethyl)amino)-2,4-dihydro-5H-pyrazolo[4,3-b]pyridin-5-one] | 1280 nM | – | – |
| 22.1 nM | 1.15 nM | – | C[C@H](Nc1c(-c2nc3ccc(C4CCOCC4)c(F)c3[nH]2)c(=O)[nH]c2cn(C)nc12)c1ncccn1 [Compound 13, (S)-6-(7-fluoro-6-(tetrahydro-2H-pyran-4-yl)-1H-benzo[d]imidazol-2-yl)-2-methyl-7-((1-(pyrimidin-2-yl)ethyl)amino)-2H-pyrazolo[4,3-b]pyridin-5(4H)-one] | 2100 nM | – | – |
| 74.3 nM | 2.02 nM | – | C[C@H](Nc1c(-c2nc3ccc(N4CCN(C)CC4)cc3[nH]2)c(=O)[nH]c2cn(C)nc12)c1ccccc1 [Compound 18, (S)-2-Methyl-6-(6-(4-methylpiperazin-1-yl)-1H-benzo[d]imidazol-2-yl)-7-((1-phenylethyl)amino)-2H-pyrazolo[4,3-b]pyridin-5(4H)-one] | 680 nM | – | – |
| 22.3 nM | 0.495 nM | – | C[C@H](Nc1c(-c2nc3ccc(N4CCOC(F)(F)C4)cc3[nH]2)c(=O)[nH]c2cn(C)nc12)c1ncccn1 [Compound 25, (S)-6-(6-(2,2-difluoromorpholino)-1H-benzo[d]imidazol-2-yl)-2-methyl-7-((1-(pyrimidin-2-yl)ethyl)amino)-2H-pyrazolo[4,3-b]pyridin-5(4H)-one] | 1210 nM | – | – |
| 99.9 nM | 0.61 nM | – | C[C@H](Nc1c(-c2nc3ccc(N4CCCCC4=O)c(F)c3[nH]2)c(=O)[nH]c2cn(C)nc12)c1ncccn1 [Compound 27, (S)-6-(7-fluoro-6-(2-oxopiperidin-1-yl)-1H-benzo[d]imidazol-2-yl)-2-methyl-7-((1-(pyrimidin-2-yl)ethyl)amino)-2H-pyrazolo[4,3-b]pyridin-5(4H)-one] | 1370 nM | – | – |
| 258 nM | 17.5 nM | – | C[C@H](Nc1c(-c2nc3ccc(N4CCCCC4)cc3[nH]2)c(=O)[nH]c2cn(C)nc12)c1ccccn1 [Compound 33, (S)-2-methyl-6-(6-(piperidin-1-yl)-1H-benzo[d]imidazol-2-yl)-7-((1-(pyridin-2-yl)ethyl)-amino)-2H-pyrazolo[4,3-b]pyridin-5(4H)-one] | 6530 nM | – | – |
| 12.6 nM | 1.04 nM | – | CCn1cc2[nH]c(=O)c(-c3nc4cnc(N5CCOCC5)cc4[nH]3)c(N[C@@H](C)c3ncccn3)c2n1 [Compound 43, (S)-2-ethyl-6-(6-morpholino-1H-imidazo[4,5-c]pyridin-2-yl)-7-((1-(pyrimidin-2-yl)ethyl)-amino)-2H-pyrazolo[4,3-b]pyridin-5(4H)-one] | 415 nM | – | – |
| 13.2 nM | 0.891 nM | – | CCn1cc2[nH]c(=O)c(-c3nc4ccc(N5CCOCC5)cc4[nH]3)c(N[C@@H](C)c3ncccn3)c2n1 [Compound 46, (S)-2-ethyl-6-(6-morpholino-1H-benzo[d]imidazol-2-yl)-7-((1-(pyrimidin-2-yl)ethyl)-amino)-2H-pyrazolo[4,3-b]pyridin-5(4H)-one] | 1070 nM | – | – |
| 17.4 nM | 2.03 nM | – | CCn1cc2[nH]c(=O)c(-c3nc4cnc(N5CCOCC5)cc4[nH]3)c(N[C@@H](C)c3ccccn3)c2n1 [Compound 47, (S)-2-ethyl-6-(6-morpholino-1H-imidazo[4,5-c]pyridin-2-yl)-7-((1-(pyridin-2-yl)ethyl)-amino)-2,4-dihydro-5H-pyrazolo[4,3-b]pyridin-5-one] | 1040 nM | – | – |
| 9.04 nM | 0.738 nM | – | CCn1cc2[nH]c(=O)c(-c3nc4c(F)cc(N5CCN(C)CC5)cc4[nH]3)c(N[C@@H](C)c3ncccn3)c2n1 [Compound 48, (S)-2-ethyl-6-(4-fluoro-6-(4-methylpiperazin-1-yl)-1H-benzo[d]imidazol-2-yl)-7-((1-(pyrimidin-2-yl)ethyl)amino)-2H-pyrazolo[4,3-b]pyridin-5(4H)-one] | 352 nM | – | – |
| 28.1 nM | 2.51 nM | – | CCn1cc2[nH]c(=O)c(-c3nc4c(F)cc(N5CC(OC)C5)cc4[nH]3)c(N[C@@H](C)c3ncccn3)c2n1 [Compound 49, (S)-2-ethyl-6-(4-fluoro-6-(3-methoxyazetidin-1-yl)-1H-benzo[d]imidazol-2-yl)-7-((1-(pyrimidin-2-yl)ethyl)amino)-2H-pyrazolo[4,3-b]pyridin-5(4H)-one] | 460 nM | – | – |
| 4.11 nM | 0.704 nM | – | COc1cc2nc(-c3c(N[C@@H](C)c4ncccn4)c4nn(C)cc4[nH]c3=O)[nH]c2cc1N1CCOCC1 [Compound 52, (S)-6-(5-methoxy-6-morpholino-1H-benzo[d]imidazol-2-yl)-2-methyl-7-((1-(pyrimidin-2-yl)ethyl)amino)-2H-pyrazolo[4,3-b]pyridin-5(4H)-one] | 390 nM | – | – |
